Assay results reported in US20030215817A1, “Modulation of gene expression in formation of fatty atherosclerotic lesions” (priority 2003, published 2003).
Counter-ions that a name gives are not always drawn.

Legend:
REC1_16 (TCGG 195) mRNA = assay: quantified RT-PCR, Rec1_16; format: in vivo, rabbit; conditions: for Relative Abundance Rec1_16, 20 pg F: hypercholesterolemic plus lercanidipine racemate, eight weeks, H2 (normocholesterolemic)=1.0
Experimental: Nineteen of the isolated DST clones were further validated using RT-PCR analyses; the data are presented in FIGS. 6-24 and in Tables 5-23, below. For each DST examined, the optimal annealing temperature and reagent conditions were determined for the corresponding set of primers (see Table 25) based on results from a preliminary experiment. In eight separate reactions, each set of primers was assayed to find the optimal conditions by adjusting the following four parameters: primer concentration, dNTP concentration, MgCl2 concentration, and number of Taq polymerase units. Once optimal conditions were determined, each DST was run in duplicate multiple simultaneous reactions which usually included at least four dilutions of template (cDNA library), plus control reactions lacking template, and six sequential data points for numbers of cycles.
Reactions were performed using “Hot Start” PCR with the Clontech TaqStart antibody system (Cat. #5400-1). Each reaction contained 1 ml of the cDNA library dilution as template, determined amounts of AmpliTaq DNA polymerase (cat. #N808-0156), MgCl2, dNTPs (GibcoBRL cat. #10297-018), primer, and Clontech TaqStart Antibody in a 20 ml final reaction volume using 10×Taq buffer II (without MgCl2). Typically, a master mix containing all components except the template was prepared and aliquoted. Various templates were then added to these master mix samples and 20 ml volumes were subsequently dispensed into individual reaction tubes. At various times during the PCR run, tubes were removed sequentially on a predetermined schedule in order to quantitate expression of the target DST over a “window” of cycle times. After amplification, the samples were quantified via fluorimetry.
PCR was performed at annealing temperatures that were five degrees above the average melting temperature of each primer pair. For primers greater than 10 bases (in a 0.05M salt solution), melting temperature was calculated using the following formula: Tm=59.9+41[% GC]−[675/Primer Length], where %GC is the decimal value. Following determination of the average melting temperature of the primer pair, the annealing temperature was determined by adding five degrees to the average melting temperature. PCR was performed using the following program: 1) 95 degrees Celsius, 3 minutes; 2) 95 degrees Celsius, 30 seconds; 3) TM+5 degrees Celsius, 30 seconds; 4) 72 degrees Celsius, for a time dependent on target length at 16 bp/second; 5) repeat steps 2-4 33 more cycles; 6) 72 degrees Celsius, 3 minutes; 7) 14 degrees Celsius, forever.
Following temperature cycling, 2 ml of the PCR reaction was added to 140 ml of a 1:280 dilution of PicoGreen (Molecular Probes cat. #P-11495 (10×100 ml)) in TE pH 7.5 in a 96-well Costar UV microtiter plate (Fisher cat. #07-200623). The samples were mixed gently for 1.5 minutes and allowed to equilibrate at room temperature in the dark for 15 minutes. The concentration of the PCR products was quantified by fluorimetry using a PerSeptive Biosystems CytoFluor series 4000 multi-well plate reader.
Background fluorescence was determined by using duplicate control samples that were cycled with all reaction components except the template. […] The sensitivity of the PicoGreen dsDNA assay is reported to be 250 pg/ml (50 pg dsDNA in a […] assay volume) using a fluorescence microplate reader such as was used in these measurements. […]

[1] = system: Rec1_6 (MspI ATCC 176) mRNA; assay: quantified RT-PCR, Rec1_6; format: in vivo, rabbit; conditions: for Relative Abundance Rec1_6, 20 pg F: hypercholesterolemic plus lercanidipine racemate, eight weeks, H2 (normocholesterolemic)=1.0
Experimental: Nineteen of the isolated DST clones were further validated using RT-PCR analyses; the data are presented in FIGS. 6-24 and in Tables 5-23, below. For each DST examined, the optimal annealing temperature and reagent conditions were determined for the corresponding set of primers (see Table 25) based on results from a preliminary experiment. In eight separate reactions, each set of primers was assayed to find the optimal conditions by adjusting the following four parameters: primer concentration, dNTP concentration, MgCl2 concentration, and number of Taq polymerase units. Once optimal conditions were determined, each DST was run in duplicate multiple simultaneous reactions which usually included at least four dilutions of template (cDNA library), plus control reactions lacking template, and six sequential data points for numbers of cycles. Reactions were performed using “Hot Start” PCR with the Clontech TaqStart antibody system (Cat. #5400-1). Each reaction contained 1 ml of the cDNA library dilution as template, determined amounts of AmpliTaq DNA polymerase (cat. #N808-0156), MgCl2, dNTPs (GibcoBRL cat. #10297-018), primer, and Clontech TaqStart Antibody in a 20 ml final reaction volume using 10×Taq buffer II (without MgCl2). Typically, a master mix containing all components except the template was prepared and aliquoted. Various templates were then added to these master mix samples and 20 ml volumes were subsequently dispensed into individual reaction tubes. At various times during the PCR run, tubes were removed sequentially on a predetermined schedule in order to quantitate expression of the target DST over a “window” of cycle times. After amplification, the samples were quantified via fluorimetry. PCR was performed at annealing temperatures that were five degrees above the average melting temperature of each primer pair. For primers greater than 10 bases (in a 0.05M salt solution), melting temperature was calculated using the following formula: Tm=59.9+41[% GC]−[675/Primer Length], where %GC is the decimal value. Following determination of the average melting temperature of the primer pair, the annealing temperature was determined by adding five degrees to the average melting temperature. PCR was performed using the following program: 1) 95 degrees Celsius, 3 minutes; 2) 95 degrees Celsius, 30 seconds; 3) TM+5 degrees Celsius, 30 seconds; 4) 72 degrees Celsius, for a time dependent on target length at 16 bp/second; 5) repeat steps 2-4 33 more cycles; 6) 72 degrees Celsius, 3 minutes; 7) 14 degrees Celsius, forever. Following temperature cycling, 2 ml of the PCR reaction was added to 140 ml of a 1:280 dilution of PicoGreen (Molecular Probes cat. #P-11495 (10×100 ml)) in TE pH 7.5 in a 96-well Costar UV microtiter plate (Fisher cat. #07-200623). The samples were mixed gently for 1.5 minutes and allowed to equilibrate at room temperature in the dark for 15 minutes. The concentration of the PCR products was quantified by fluorimetry using a PerSeptive Biosystems CytoFluor series 4000 multi-well plate reader. Background fluorescence was determined by using duplicate control samples that were cycled with all reaction components except the template. The mean value from these duplicate background control samples was subtracted from the corresponding experimental values prior to analyzing results. The sensitivity of the PicoGreen dsDNA assay is reported to be 250 pg/ml (50 pg dsDNA in a […] assay volume) using a fluorescence microplate reader such as was used in these measurements. […]

Compound: COC(=O)C1=C(C)NC(C)=C(C(=O)OC(C)(C)CN(C)CCC(c2ccccc2)c2ccccc2)C1c1cccc([N+](=O)[O-])c1 (racemic) [lercanidipine, lercanidipine hydrochloride]
- Relative Abundance Rec1_16, 20 pg F (REC1_16 (TCGG 195) mRNA; cycle 28): 0.0
- Relative Abundance Rec1_16, 20 pg F (REC1_16 (TCGG 195) mRNA; cycle 30): 0.2
- Relative Abundance Rec1_16, 20 pg F (REC1_16 (TCGG 195) mRNA; cycle 32): 0.6
- Relative Abundance Rec1_16, 20 pg F (REC1_16 (TCGG 195) mRNA; cycle 34): 0.3
- expression of Rec1_16 at 8 weeks (RT-PCR study), in words (REC1_16 (TCGG 195) mRNA; hypercholesterolemic animals receiving lercanidipine): decreased
- Relative Abundance Rec1_6, 20 pg F ([1]; cycle 24): 3.1
- Relative Abundance Rec1_6, 20 pg F ([1]; cycle 26): 2.2
- Relative Abundance Rec1_6, 20 pg F ([1]; cycle 28): 2.1
- Relative Abundance Rec1_6, 20 pg F ([1]; cycle 30): 1.7
- Relative Abundance Rec1_6, 20 pg F ([1]; cycle 32): 1.4
- Relative Abundance Rec1_6, 20 pg F ([1]; cycle 34): 1.5
- expression of Rec1_6 at 8 weeks (RT-PCR study), in words ([1]; hypercholesterolemic animals receiving lercanidipine racemate): somewhat more elevated
